This assay addresses T1, recombinant human SAE enzyme (Homo sapiens, UniProt Q9UBT2).
T1 sequence (Q9UBT2 1-640): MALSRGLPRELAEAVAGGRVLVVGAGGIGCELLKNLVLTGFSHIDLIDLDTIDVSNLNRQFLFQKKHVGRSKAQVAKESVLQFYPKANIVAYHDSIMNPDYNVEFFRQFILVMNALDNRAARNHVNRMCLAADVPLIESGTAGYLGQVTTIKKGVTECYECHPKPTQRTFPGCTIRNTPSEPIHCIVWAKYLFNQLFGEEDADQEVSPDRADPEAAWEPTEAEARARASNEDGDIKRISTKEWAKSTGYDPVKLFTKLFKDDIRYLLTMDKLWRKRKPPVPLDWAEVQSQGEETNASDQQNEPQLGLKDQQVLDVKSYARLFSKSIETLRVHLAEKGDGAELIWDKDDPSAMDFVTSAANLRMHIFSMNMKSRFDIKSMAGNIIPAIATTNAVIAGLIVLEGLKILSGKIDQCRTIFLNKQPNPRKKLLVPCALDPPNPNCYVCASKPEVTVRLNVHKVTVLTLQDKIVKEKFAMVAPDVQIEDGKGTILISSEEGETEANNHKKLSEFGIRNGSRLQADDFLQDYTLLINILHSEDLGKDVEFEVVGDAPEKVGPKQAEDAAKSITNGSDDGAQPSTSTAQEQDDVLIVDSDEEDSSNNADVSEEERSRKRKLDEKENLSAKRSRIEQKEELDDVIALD
T1 sequence (Q9UBE0 1-346 partner): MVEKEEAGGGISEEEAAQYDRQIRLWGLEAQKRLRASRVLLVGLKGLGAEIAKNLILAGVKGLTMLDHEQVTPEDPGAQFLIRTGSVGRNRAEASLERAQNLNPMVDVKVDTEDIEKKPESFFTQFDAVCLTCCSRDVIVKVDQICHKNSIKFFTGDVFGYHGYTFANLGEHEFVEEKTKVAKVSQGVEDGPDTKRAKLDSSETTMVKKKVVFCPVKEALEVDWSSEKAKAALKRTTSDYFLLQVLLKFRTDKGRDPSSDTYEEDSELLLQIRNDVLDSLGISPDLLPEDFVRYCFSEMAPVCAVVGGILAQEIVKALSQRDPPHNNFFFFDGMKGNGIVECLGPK
Briefly: SAE HTRF Enzyme Assay. The class given is biochemical. The following applies: for IC50: class symbols A-C; for inhibition at 0.111 µM: compound concentration 0.111 μM, read-out: Percent Inhibition. In a few lines: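 Reaction with 0.11 nM recombinant human SAE, 0.5 μM ATP, 0.01 μM Ubc9-GST, 0.125 μM Sumo-Flag in HEPES pH 7.5, MgCl2, GSH, BSA, 105 min at 24 °C. Stopped with EDTA/KF buffer carrying Eu-anti-Flag and anti-GST-APC; HTRF read after 2 h; % inhibition or IC50.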

For the molecule `NS(=O)(=O)OC[C@H]1C[C@@H](Nc2ccncc2C(=O)c2ccn(Cc3cccc(Cl)c3)n2)C[C@@H]1O` [Compound I-52, {(1R,2S,4R)-4-[(3-{[1-(3-Chlorobenzyl)-1H-pyrazol-3-yl]carbonyl}pyridin-4-yl)amino]-2-hydroxycyclopentyl}methyl sulfamate], the IC50 was below 10 nM and the inhibition at 0.111 µM amounted to 99%.
Consider `NS(=O)(=O)OC[C@H]1C[C@@H](Nc2ncncc2C(=O)c2ccn(Cc3ccnc(C(F)(F)F)c3)n2)C[C@@H]1O` [Compound I-53, [(1R,2S,4R)-2-hydroxy-4-({5-[(1-{[2-(trifluoromethyl)pyridin-4-yl]methyl}-1H-pyrazol-3-yl)carbonyl]pyrimidin-4-yl}amino)cyclopentyl]methyl sulfamate], for which the IC50 lay within 10 to 100 nM and the inhibition at 0.111 µM is 79%.
In the case of `NS(=O)(=O)OC[C@H]1C[C@@H](Nc2ncnc(Cl)c2C(=O)c2ccn(Cc3cccc(Cl)c3)n2)C[C@@H]1O` [Compound I-54, {(1R,2S,4R)-4-[(6-Chloro-5-{[1-(3-chlorobenzyl)-1H-pyrazol-3-yl]carbonyl}pyrimidin-4-yl)amino]-2-hydroxycyclopentyl}methyl sulfamate], the IC50 lay in the range of 10 to 100 nM and the inhibition at 0.111 µM was found to be 63%.
In the same order, the values of `CC1CC1Cn1ccc(C(=O)c2cncnc2N[C@@H]2C[C@H](COS(N)(=O)=O)[C@@H](O)C2)n1` (stereo partly drawn) [Compound I-55, [(1R,2S,4R)-hydroxy-4-{[5-({1-[((1S,2S)-2-methylcyclopropyl)methyl]-1H-pyrazol-3-yl}carbonyl)pyrimidin-4-yl]amino}cyclopentyl]methyl sulfamate and [(1R,2S,4R)-2-hydroxy-4-{[5-({1-[((1R,2R)-2-methylcyclopropyl)methyl]-1H-pyrazol-3-yl}carbonyl)pyrimidin-4-yl]amino}cyclopentyl]methyl sulfamate] are 10 to 100 nM and 58%.
In the same order, the values of `NS(=O)(=O)OC[C@H]1C[C@@H](Nc2ccncc2C(=O)c2ccn(Cc3ccccc3)n2)[C@H](O)[C@@H]1O` [Compound I-56, [(1R,2R,3S,4R)-4-({3-[(1-Benzyl-1H-pyrazol-3-yl)carbonyl]pyridin-4-yl}amino)-2,3-dihydroxycyclopentyl]methyl sulfamate] are below 10 nM and 100%.
In the same order, the values of `COc1cc(Cn2ccc(C(=O)c3cncnc3N[C@@H]3C[C@H](COS(N)(=O)=O)[C@@H](O)[C@@H]3F)c2)ccc1F` [Compound I-57, {(1R,2R,3R,4R)-3-Fluoro-4-[(5-{[1-(4-fluoro-3-methoxybenzyl)-1H-pyrrol-3-yl]carbonyl}pyrimidin-4-yl)amino]-2-hydroxycyclopentyl}methyl sulfamate] are below 10 nM and 98%.
Consider `NS(=O)(=O)OC[C@H]1C[C@@H](Nc2ncncc2C(=O)c2ccn(Cc3ccc(Cl)c(Cl)c3)n2)C[C@@H]1O` [Compound I-58, {(1R,2S,4R)-4-[(5-{[1-(3,4-dichlorobenzyl)-1H-pyrazol-3-yl]carbonyl}pyrimidin-4-yl)amino]-2-hydroxycyclopentyl}methyl sulfamate], for which the concentration for half-maximal inhibition (IC50) was below 10 nM and the inhibition at 0.111 µM is 88%.
In the same order, the values of `NS(=O)(=O)OC[C@H]1C[C@@H](Nc2ncncc2C(=O)c2ccn(CC#CCC3CCCC3)n2)C[C@@H]1O` [Compound I-59, {(1R,2S,4R)-4-[(5-{[1-(4-cyclopentylbut-2-yn-1-yl)-1H-pyrazol-3-yl]carbonyl}pyrimidin-4-yl)amino]-2-hydroxycyclopentyl}methyl sulfamate] are 10 to 100 nM and 70%.
Take `CC(C)(O)c1cccc(Cn2ccc(C(=O)c3cncnc3N[C@@H]3C[C@H](COS(N)(=O)=O)[C@@H](O)C3)n2)c1` [Compound I-60, [(1R,2S,4R)-2-hydroxy-4-{[5-({1-[3-(2-hydroxypropan-2-yl)benzyl]-1H-pyrazol-3-yl}carbonyl)pyrimidin-4-yl]amino}cyclopentyl]methyl sulfamate]: the IC50 is 10 to 100 nM and the inhibition at 0.111 µM worked out at 91%.
Taken in the same sequence, the figures for `NS(=O)(=O)OC[C@H]1C[C@@H](Nc2ncncc2C(=O)c2cc(Cl)n(Cc3cccc(Cl)c3)c2)[C@@H](F)[C@@H]1O` [Compound I-61] were below 10 nM and 99%.
In the same order, the values of `NS(=O)(=O)OC[C@H]1C[C@@H](Nc2ncncc2C(=O)c2ccn(Cc3ccc(F)cc3F)n2)C[C@@H]1O` [Compound I-62, {(1R,2S,4R)-4-[(5-{[1-(2,4-difluorobenzyl)-1H-pyrazol-3-yl]carbonyl}pyrimidin-4-yl)amino]-2-hydroxycyclopentyl}methyl sulfamate] are below 10 nM and 96%.
In the same order, the values of `COc1ncccc1Cn1ccc(C(=O)c2cncnc2N[C@@H]2C[C@H](COS(N)(=O)=O)[C@@H](O)C2)n1` [Compound I-63, [(1R,2S,4R)-2-hydroxy-4-{[5-({1-[(2-methoxypyridin-3-yl)methyl]-1H-pyrazol-3-yl}carbonyl)pyrimidin-4-yl]amino}cyclopentyl]methyl sulfamate] are 10 to 100 nM and 87%.
Turning to `CC(C)(C)c1cccc(Cn2ccc(C(=O)c3cncnc3N[C@@H]3C[C@H](COS(N)(=O)=O)[C@@H](O)C3)n2)c1` [Compound I-64, {(1R,2S,4R)-4-[(5-{[1-(3--tert-butylbenzyl)-1H-pyrazol-3-yl]carbonyl}pyrimidin-4-yl)amino]-2-hydroxycyclopentyl}methyl sulfamate], the 50% inhibitory concentration (IC50) fell in the range of 10 to 100 nM and the inhibition at 0.111 µM is 91%.
For `Cc1cc(C(=O)c2cncnc2N[C@@H]2C[C@H](COS(N)(=O)=O)[C@@H](O)C2)nn1Cc1ccccc1` [Compound I-66, [(1R,2S,4R)-4-({5-[(1-benzyl-5-methyl-1H-pyrazol-3-yl)carbonyl]pyrimidin-4-yl}amino)-2-hydroxycyclopentyl]methyl sulfamate], the concentration for half-maximal inhibition (IC50) was below 10 nM and the inhibition at 0.111 µM came to 98%.
On to `NS(=O)(=O)OC[C@H]1C[C@@H](Nc2ncncc2C(=O)c2ccn(Cc3cccc(NC(=O)CCl)c3)n2)[C@H](O)[C@@H]1O` [Compound I-67, [(1R,2R,3S,4R)-4-({5-[(1-{3-[(chloroacetyl)amino]benzyl}-1H-pyrazol-3-yl)carbonyl]pyrimidin-4-yl}amino)-2,3-dihydroxycyclopentyl]methyl sulfamate], for which the half-maximal inhibitory concentration (IC50) was below 10 nM and the inhibition at 0.111 µM amounted to 94%.
Taken in the same sequence, the figures for `NS(=O)(=O)OC[C@H]1C[C@@H](Nc2ncncc2C(=O)c2ccn(Cc3cccc(I)c3)c2)C[C@@H]1O` [Compound I-68, {(1R,2S,4R)-2-hydroxy-4-[(5-{[1-(3-iodobenzyl)-1H-pyrrol-3-yl]carbonyl}pyrimidin-4-yl)amino]cyclopentyl}methyl sulfamate] were below 10 nM and 99%.
Taken in the same sequence, the figures for `NS(=O)(=O)OC[C@H]1C[C@@H](Nc2ncncc2C(=O)c2ccn(Cc3ccc(C(F)(F)F)cc3C(F)(F)F)n2)C[C@@H]1O` [Compound I-69, [(1R,2S,4R)-4-{[5-({1-[2,4-bis(trifluoromethyl)benzyl]-1H-pyrazol-3-yl}carbonyl)pyrimidin-4-yl]amino}-2-hydroxycyclopentyl]methyl sulfamate] were 100 to 1000 nM and 39%.
Taken in the same sequence, the figures for `NS(=O)(=O)OC[C@H]1C[C@@H](Nc2ncncc2C(=O)c2ccn(Cc3cc(Cl)ccn3)n2)[C@H](O)[C@@H]1O` [Compound I-70, [(1R,2R,3S,4R)-4-{[5-({1-[(4-chloropyridin-2-yl)methyl]-1H-pyrazol-3-yl}carbonyl)pyrimidin-4-yI]amino}-2,3-dihydroxycyclopentyl]methyl sulfamate] were below 10 nM and 99%.
For `Cc1cc(C(=O)c2cncnc2N[C@@H]2C[C@H](COS(N)(=O)=O)[C@@H](O)[C@@H]2F)cn1Cc1cccc(Br)c1` [Compound I-71, {(1R,2R,3R,4R)-4-[(5-{[1-(3-bromobenzyl)-5-methyl-1H-pyrrol-3-yl]carbonyl}pyrimidin-4-yl)amino]-3-fluoro-2-hydroxycyclopentyl}methyl sulfamate], the IC50 is below 10 nM and the inhibition at 0.111 µM was found to be 100%.
